# Numbering of substitutions follows the chain as printed.
# What was measured:
# [1] = biological target: T1, SUCR1 mutants (variant named in the endpoint) (Homo sapiens, UniProt Q9BXA5, I157M); assay: Calcium mobilization assay, SUCR1 mutants in HEK293 stably expressing Gα16; assay type: cell-based; conditions: HEK293, SUCR1 I157M; Emax relative to the SUC;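 for Emax: percent of the maximal response to succinate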
# T1 construct: The full-length human SUCR1 and mutations were fused after the HA signal peptide and Flag tag; HA signal peptide (N); Flag (N); expressed in transfected cells; host or cells: HEK293 stably expressing Gα16 (pcDNA6.0, transient electroporation)
# T1 sequence (Q9BXA5 1-334 I157M): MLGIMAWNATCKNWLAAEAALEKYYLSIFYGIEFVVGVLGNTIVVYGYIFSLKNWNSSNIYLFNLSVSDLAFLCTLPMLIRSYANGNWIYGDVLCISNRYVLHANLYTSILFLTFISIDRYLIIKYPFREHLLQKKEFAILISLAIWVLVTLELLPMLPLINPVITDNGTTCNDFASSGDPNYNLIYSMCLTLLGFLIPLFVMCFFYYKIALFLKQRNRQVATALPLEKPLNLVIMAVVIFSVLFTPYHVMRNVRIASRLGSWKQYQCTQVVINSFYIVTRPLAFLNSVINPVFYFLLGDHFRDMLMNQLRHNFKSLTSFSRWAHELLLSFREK
# Description: (§1) The full-length human SUCR1 and mutations were fused after the HA signal peptide and Flag tag. The constructs were cloned into pcDNA6.0 vector for HEK293 system.
# (§2) HEK293 cells were obtained from ATCC (Manassas, VA, USA) and cultured in DMEM supplemented with 10% (v/v) FBS, 100 mg/L penicillin, and 100 mg/L streptomycin in 5% CO2 at 37 °C. For transient transfection, ~2.5 × 10^6 cells were mixed with 2 µg plasmids in 200 µL transfection buffer, and electroporation was carried out with a Scientz-2C electroporation apparatus (Scientz Biotech, Ningbo, China). The experiments were carried out 24 h after transfection. HEK293 cell lines stably expressing Gα16 were constructed by our laboratory.
# (§3) For OXGR1, plasmids were transfected into HEK293 (other receptors were transfected into HEK293 stably expressing Gα16) and seeded at a density of 4 × 10^4 per well into 96-well culture plates and incubated for 24 h at 37 °C in 5% CO2. The next day, Cells were incubated with 2 μM/L Fluo-4 AM in HBSS supplemented with 5.6 mM/L D-glucose and 250 μM/L sulfinpyrazone at 37 °C for 45 min. […] Three independent measurements were repeated, i.e., three different transfections, with three technical replicates performed for each experiment. EC50 and Emax values for each curve were calculated by Prism 8.0 software (GraphPad Software).
# [2] = biological target: T2, SUCR1 mutants (variant named in the endpoint) (Homo sapiens, UniProt Q9BXA5, Y248F); assay: as above; assay type: cell-based
# T2 construct: The full-length human SUCR1 and mutations were fused after the HA signal peptide and Flag tag; HA signal peptide (N); Flag (N); expressed in transfected cells; host or cells: HEK293 stably expressing Gα16 (pcDNA6.0, transient electroporation)
# T2 sequence (Q9BXA5 1-334 Y248F): T1 sequence (Q9BXA5 1-334 I157M) with M157I, Y248F
# Description: as §1, §2, §3
# FFAR3 = biological target: T3, FFAR3 (Homo sapiens, UniProt O14843); assay: Calcium mobilization assay, FFAR3 in HEK293 stably expressing Gα16; assay type: cell-based; conditions: in words; related receptor
# T3 construct: expressed in transfected cells; host or cells: HEK293 stably expressing Gα16
# T3 sequence (O14843 1-346): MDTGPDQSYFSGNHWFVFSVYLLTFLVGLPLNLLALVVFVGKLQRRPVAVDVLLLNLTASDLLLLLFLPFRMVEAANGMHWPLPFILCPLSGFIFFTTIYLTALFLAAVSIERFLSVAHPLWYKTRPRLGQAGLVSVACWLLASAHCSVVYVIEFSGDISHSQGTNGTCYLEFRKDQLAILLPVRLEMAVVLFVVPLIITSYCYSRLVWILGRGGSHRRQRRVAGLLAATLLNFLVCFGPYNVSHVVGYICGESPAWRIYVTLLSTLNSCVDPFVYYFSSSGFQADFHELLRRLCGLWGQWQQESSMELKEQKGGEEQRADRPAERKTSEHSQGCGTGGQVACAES
# Description: as §2, §3
# [3] = tested on: OXGR1 mutants (variant named in the endpoint); assay: Calcium mobilization assay, OXGR1 mutants in HEK293; conditions: for Emax: each ligand normalized to WT (100%); for increase in potency by F113W mutation: OXGR1 F113W versus WT; for activation of OXGR1 L299P: in words;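 for all read-outs here: human OXGR1 variants transiently expressed in HEK293 cells, with intracellular calcium read out by Fluo-4 AM fluorescence, measured 24 h after transfection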
# Description: as §1, §2, §3
# [4] = biological target: T4, SUCR1 mutants (variant named in the endpoint) (Homo sapiens, UniProt Q9BXA5, F285A/L102F); assay: Calcium mobilization assay, SUCR1 mutants in HEK293 stably expressing Gα16; assay type: cell-based; conditions: SUCR1 F285A-L102F;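 for Emax: percent of the maximal response to succinate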
# T4 construct: The full-length human SUCR1 and mutations were fused after the HA signal peptide and Flag tag; HA signal peptide (N); Flag (N); expressed in transfected cells; host or cells: HEK293 stably expressing Gα16 (pcDNA6.0, transient electroporation)
# T4 sequence (Q9BXA5 1-334 L102F/F285A): T1 sequence (Q9BXA5 1-334 I157M) with L102F, M157I, F285A
# Description: as §1, §2, §3
compound,measurement,setting,value
"C=C(CC(=O)O)C(=O)O [ITA, itaconate]",Emax,[1],-0.44 ± 1%
same,Emax,"[2]; HEK293, SUCR1 Y248F, Emax relative to the SUC",15 ± 2%
same,activation of FFAR3,FFAR3,no detectable activation
same,EC50,[3]; OXGR1 D185A,> 1000 µM
same,Emax,[3]; OXGR1 D185A,4.9± 2 WT%
same,EC50,[3]; OXGR1 E97A,> 1000 µM
same,Emax,[3]; OXGR1 E97A,47± 3 WT%
same,EC50,[3]; OXGR1 F113A,> 1000 µM
same,Emax,[3]; OXGR1 F113A,26± 3 WT%
same,EC50,[3]; OXGR1 F113W,21.3 ± 2 µM
same,increase in potency by F113W mutation,[3],~ 2 fold
same,Emax,[3]; OXGR1 F113W,86± 2 WT%
same,EC50,[3]; OXGR1 F130D,> 1000 µM
same,Emax,[3]; OXGR1 F130D,-5.6± 4 WT%
same,EC50,[3]; OXGR1 F130E,> 1000 µM
same,Emax,[3]; OXGR1 F130E,-5.3± 3 WT%
same,EC50,[3]; OXGR1 F250A,> 1000 µM
same,Emax,[3]; OXGR1 F250A,2.2± 3 WT%
same,EC50,[3]; OXGR1 F254A,> 1000 µM
same,Emax,[3]; OXGR1 F254A,0.87± 3 WT%
same,EC50,[3]; OXGR1 F257A,52 ± 10 µM
same,Emax,[3]; OXGR1 F257A,54± 2 WT%
same,EC50,[3]; OXGR1 F257Y,130 ± 40 µM
same,Emax,[3]; OXGR1 F257Y,120± 10 WT%
same,EC50,[3]; OXGR1 H114A,> 1000 µM
same,Emax,[3]; OXGR1 H114A,-4.6± 2 WT%
same,EC50,[3]; OXGR1 H114L,> 1000 µM
same,Emax,[3]; OXGR1 H114L,-5.6± 5 WT%
same,EC50,[3]; OXGR1 H258A,> 1000 µM
same,Emax,[3]; OXGR1 H258A,3.0± 6 WT%
same,EC50,[3]; OXGR1 H281A,670 ± 60 µM
same,Emax,[3]; OXGR1 H281A,74±3 WT%
same,EC50,[3]; OXGR1 I121A,> 1000 µM
same,Emax,[3]; OXGR1 I121A,15± 5 WT%
same,EC50,[3]; OXGR1 I172A,> 1000 µM
same,Emax,[3]; OXGR1 I172A,-0.93± 2 WT%
same,EC50,[3]; OXGR1 I285A,> 1000 µM
same,Emax,[3]; OXGR1 I285A,34±5 WT%
same,EC50,[3]; OXGR1 L36A,> 1000 µM
same,Emax,[3]; OXGR1 L36A,6.5± 8 WT%
same,EC50,[3]; OXGR1 L89A,> 1000 µM
same,Emax,[3]; OXGR1 L89A,-4.5± 2.0 WT%
same,EC50,[3]; OXGR1 L117A,500 ± 20 µM
same,Emax,[3]; OXGR1 L117A,63± 4 WT%
same,EC50,[3]; OXGR1 L124A,> 1000 µM
same,Emax,[3]; OXGR1 L124A,36± 3 WT%
same,EC50,[3]; OXGR1 L186A,> 1000 µM
same,Emax,[3]; OXGR1 L186A,-4.0± 2 WT%
same,EC50,[3]; OXGR1 L186F,180 ± 50 µM
same,Emax,[3]; OXGR1 L186F,80± 9 WT%
same,EC50,[3]; OXGR1 L299P,> 1000 µM
same,activation of OXGR1 L299P,[3]; OXGR1 L299P,abolished
same,EC50,[3]; OXGR1 M168I,510 ± 60 µM
same,Emax,[3]; OXGR1 M168I,100± 8 WT%
same,EC50,[3]; OXGR1 N28A,120 ± 30 µM
same,Emax,[3]; OXGR1 N28A,100± 8 WT%
same,EC50,[3]; OXGR1 R110A,> 1000 µM
same,Emax,[3]; OXGR1 R110A,6.5± 2 WT%
same,EC50,[3]; OXGR1 R110E,> 1000 µM
same,Emax,[3]; OXGR1 R110E,-2.0± 3 WT%
same,EC50,[3]; OXGR1 R110Q,> 1000 µM
same,Emax,[3]; OXGR1 R110Q,-2.8± 0.7 WT%
same,EC50,[3]; OXGR1 R177A,320 ± 90 µM
same,Emax,[3]; OXGR1 R177A,110± 3 WT%
same,EC50,[3]; OXGR1 R261A,> 1000 µM
same,Emax,[3]; OXGR1 R261A,6.7± 2 WT%
same,EC50,[3]; OXGR1 R264A,> 1000 µM
same,Emax,[3]; OXGR1 R264A,24± 3 WT%
same,EC50,[3]; OXGR1 R268A,> 1000 µM
same,Emax,[3]; OXGR1 R268A,-4.3± 4 WT%
same,EC50,[3]; OXGR1 R288A,> 1000 µM
same,Emax,[3]; OXGR1 R288A,11±7 WT%
same,EC50,[3]; OXGR1 R288E,> 1000 µM
same,EC50,[3]; OXGR1 R288Q,> 1000 µM
same,Emax,[3]; OXGR1 R288Q,14±1 WT%
same,EC50,[3]; OXGR1 Y40A,> 1000 µM
same,Emax,[3]; OXGR1 Y40A,6.9± 9 WT%
same,EC50,[3]; OXGR1 Y82A,> 1000 µM
same,Emax,[3]; OXGR1 Y82A,56± 7 WT%
same,EC50,[3]; OXGR1 Y93A,> 1000 µM
same,Emax,[3]; OXGR1 Y93A,3.3± 2 WT%
same,EC50,[3]; OXGR1 Y284A,> 1000 µM
same,Emax,[3]; OXGR1 Y284A,-9±2 WT%
"O=C(O)CCC(=O)O [SUC, succinate]",EC50,[2]; SUCR1 Y248F,810 ± 90 µM
same,EC50,[4],460 ± 80 µM
same,EC50,[3]; OXGR1 D185A,> 1000 µM
same,Emax,[3]; OXGR1 D185A,-4.4± 9 WT%
same,EC50,[3]; OXGR1 E97A,1580 ± 260 µM
same,Emax,[3]; OXGR1 E97A,74± 6 WT%
same,EC50,[3]; OXGR1 F113A,> 1000 µM
same,Emax,[3]; OXGR1 F113A,-0.39± 2 WT%
same,EC50,[3]; OXGR1 F113W,760 ± 210 µM
same,increase in potency by F113W mutation,[3],no significant change
same,Emax,[3]; OXGR1 F113W,82± 5 WT%
same,EC50,[3]; OXGR1 F257A,> 10000 µM
same,Emax,[3]; OXGR1 F257A,29± 1 WT%
same,EC50,[3]; OXGR1 F257Y,81 ± 4 µM
same,Emax,[3]; OXGR1 F257Y,76± 2 WT%
same,EC50,[3]; OXGR1 H114A,3600 ± 600 µM
same,Emax,[3]; OXGR1 H114A,84± 4 WT%
same,EC50,[3]; OXGR1 H114L,> 1000 µM
same,Emax,[3]; OXGR1 H114L,1.9± 3 WT%
same,EC50,[3]; OXGR1 H281A,4500 ± 1300 µM
same,Emax,[3]; OXGR1 H281A,87±10 WT%
same,EC50,[3]; OXGR1 I172A,> 1000 µM
same,Emax,[3]; OXGR1 I172A,0.013± 2 WT%
same,EC50,[3]; OXGR1 L36A,> 1000 µM
same,Emax,[3]; OXGR1 L36A,6.1± 0.2 WT%
same,EC50,[3]; OXGR1 L89A,> 1000 µM
same,Emax,[3]; OXGR1 L89A,2.8± 0.9 WT%
same,EC50,[3]; OXGR1 L186A,> 1000 µM
same,Emax,[3]; OXGR1 L186A,-0.43± 1 WT%
same,EC50,[3]; OXGR1 L186F,770 ± 60 µM
same,Emax,[3]; OXGR1 L186F,75± 5 WT%
same,EC50,[3]; OXGR1 L299P,> 1000 µM
same,Emax,[3]; OXGR1 L299P,10.5±3 WT%
same,activation of OXGR1 L299P,[3]; OXGR1 L299P,abolished
same,EC50,[3]; OXGR1 M168I,1100 ± 60 µM
same,Emax,[3]; OXGR1 M168I,88± 2 WT%
same,EC50,[3]; OXGR1 N28A,300 ± 50 µM
same,Emax,[3]; OXGR1 N28A,94± 0.8 WT%
same,EC50,[3]; OXGR1 R110A,> 1000 µM
same,Emax,[3]; OXGR1 R110A,7.0± 1 WT%
same,EC50,[3]; OXGR1 R110E,> 1000 µM
same,Emax,[3]; OXGR1 R110E,8.9± 5 WT%
same,EC50,[3]; OXGR1 R110Q,> 1000 µM
same,Emax,[3]; OXGR1 R110Q,1.7± 2 WT%
same,EC50,[3]; OXGR1 R177A,370 ± 70 µM
same,Emax,[3]; OXGR1 R177A,89± 6 WT%
same,EC50,[3]; OXGR1 R264A,> 10000 µM
same,Emax,[3]; OXGR1 R264A,57± 5 WT%
same,EC50,[3]; OXGR1 R268A,> 1000 µM
same,Emax,[3]; OXGR1 R268A,6.3± 4 WT%
same,EC50,[3]; OXGR1 R288A,> 1000 µM
same,EC50,[3]; OXGR1 R288E,> 1000 µM
same,Emax,[3]; OXGR1 R288E,-16±0.6 WT%
same,EC50,[3]; OXGR1 R288Q,> 1000 µM
same,EC50,[3]; OXGR1 Y40A,> 1000 µM
same,Emax,[3]; OXGR1 Y40A,-1.5± 2 WT%
same,EC50,[3]; OXGR1 Y93A,> 1000 µM
same,Emax,[3]; OXGR1 Y93A,5.5± 3 WT%
same,EC50,[3]; OXGR1 Y284A,> 1000 µM
same,Emax,[3]; OXGR1 Y284A,4.1±2 WT%

# — publication PMC13372822 (The EMBO Journal, 2026)
